Values belong to the compound of their own block, whether it stands above or below them.
Experiments:
K562 = experiment: Antiproliferative activity against K562 cells; type: functional, cell-based; conditions: Homo sapiens
U-937 = experiment: Antiproliferative activity against U937 cells; type: functional, cell-based; conditions: Homo sapiens

SMILES: Cc1ccc(NC(=O)c2ccc(CN3CC(N(C)C)C3)c(C(F)(F)F)c2)cc1Nc1nccc(-c2cncnc2)n1
IC50 (K562): 0.017 µM
IC50 (U-937): > 100 µM

SMILES: Cc1ccc(NC(=O)c2ccc(CN3CCN(C)CC3)c(Cl)c2)cc1Nc1nccc(-c2cccnc2)n1
IC50 (K562): 0.01 µM
IC50 (U-937): 9 µM

SMILES: Cc1ccc(NC(=O)c2ccc(CN3CC[C@H](CN(C)C)C3)c(C(F)(F)F)c2)cc1Nc1nccc(-c2cncnc2)n1
IC50 (K562): 0.011 µM
IC50 (U-937): 20 µM

SMILES: Cc1ccc(NC(=O)c2ccc(CN3CC[C@@H](CN(C)C)C3)c(C(F)(F)F)c2)cc1Nc1nccc(-c2cncnc2)n1
IC50 (K562): 0.009 µM
IC50 (U-937): > 100 µM

SMILES: Cc1ccc(NC(=O)c2ccc(CN3CC[C@H](N(C)C)C3)c(C(F)(F)F)c2)cc1Nc1nccc(-c2cncnc2)n1 [BAFETINIB]
IC50 (K562): 0.011 µM
IC50 (U-937): 10 µM

SMILES: Cc1ccc(NC(=O)c2ccc(CN3CCN(C)CC3)cc2)cc1Nc1nccc(-c2cccnc2)n1 [IMATINIB]
IC50 (U-937): 14 µM

The remaining compounds from weak to strong by IC50 (U-937), led by results:

IC50 (K562): 0.004 µM
IC50 (U-937): 9 µM
SMILES: Cc1ccc(NC(=O)c2ccc(CN3CC[C@@H](N(C)C)C3)c(C(F)(F)F)c2)cc1Nc1nccc(-c2cncnc2)n1

IC50 (U-937): 8 µM
SMILES: Cc1ccc(NC(=O)c2ccc(CN3CCN(C)CC3)c(F)c2)cc1Nc1nccc(-c2cccnc2)n1

IC50 (K562): 0.01 µM
IC50 (U-937): 6 µM
SMILES: Cc1ccc(NC(=O)c2ccc(CN3CCN(C)CC3)c(I)c2)cc1Nc1nccc(-c2cccnc2)n1

IC50 (U-937): 5 µM
SMILES: Cc1ccc(NC(=O)c2ccc(CN3CCN(C)CC3)c(C(F)(F)F)c2)cc1Nc1nccc(-c2cncnc2)n1

IC50 (U-937): 5 µM
SMILES: Cc1ccc(NC(=O)c2ccc(CN3CCN(C)CC3)c(Br)c2)cc1Nc1nccc(-c2cccnc2)n1

IC50 (U-937): 4 µM
SMILES: Cc1ccc(NC(=O)c2ccc(CN3CCN(C)CC3)c(C(F)(F)F)c2)cc1Nc1nccc(-c2cccnc2)n1

Reference: ChEMBL document CHEMBL1139038, “Design and synthesis of 3-substituted benzamide derivatives as Bcr-Abl kinase inhibitors” (Bioorg Med Chem Lett, 2006)
